Test results published in paper PMC12562324, “Surfactin Structural Variants Differentially Modulate Plant Immune Responses” (Biomolecules, 2025).

Tests used:
[1] = test system: protoplasts isolated from roots of Arabidopsis thaliana Col-0; assay: [ROS]intra burst in root protoplasts, DCFH-DA; assay type: cell-based; settings: 10 µM, fold increase in fluorescence at 5 min; n = 12 from three independent experiments; Figure 2D
Description: Two-week-old Arabidopsis thaliana seedling roots (from 27 mg seeds) were collected and were cut into 1–2 mm segments and incubated in a protoplasting solution (20 mM MES pH 5.7, 0.4 M mannitol, 20 mM KCl, 10 mM CaCl2, 0.1% (w/v) BSA, 1.5% (w/v) cellulase R10 (Duchefa Biochemie, Haarlem, The Netherlands), 0.4% (w/v) macerozyme R10 (Duchefa Chimie)) for 3 h at room temperature and in the dark. After incubation, 1 mL of solution A (154 mM NaCl, 5 mM KCl, 125 mM CaCl2, 4 mM MES, pH = 5.7) was added inside. The suspension was agitated gently and filtered by a 70 µm pore filter to remove extra root debris. Filtered suspension was centrifuged at 850 g for 6 min at room temperature, and the pelleted protoplasts were rinsed three times with solution B (4 mM MES pH 5.7, 154 mM NaCl, 125 mM CaCl2, 5 mM KCl) before being resuspended in solution C (2 mM MES pH 5.7, 0.5 M mannitol, 20 mM KCl, 2 mM CaCl2) at a working concentration of 1–2 × 10^5 cells per mL. For [ROS]intra measurements in protoplasts, protoplasts isolated from roots of Arabidopsis thaliana Col-0 plants were incubated for 10 min with 5 µM of DCFH-DA. Then, wells of black 96-well microplates (96 Flat Black-Greiner Bio-One^TM CellStar^TM, Fischer Scientific) were loaded with 150 µL of protoplasts solution per well. After the addition of 50 µL of four-times-concentrated treatment, the fluorescence was recorded every minute using a microplate reader with an excitation filter at 485 ± 20 nm and emission filter at 535 ± 25 nm. The data were processed as for the roots.

[2] = test system: Arabidopsis thaliana Col-0 roots; assay: [ROS]intra burst in roots, DCFH-DA fluorescent probe; assay type: cell-based; settings: mix of homologues, 10 µM, fold change at 20 min vs mock (DMSO 0.1%); n = 9 from three independent experiments; Figure 2B,C
Description: For cytoplasmic hydrogen peroxide (reflecting cytosolic/intracellular ROS and referred to hereafter as [ROS]intra) measurement in roots, 15 mm long Arabidopsis thaliana root segments, isolated from different two-week-old plants, were placed in a well (one root/well) of a microplate (96 Flat Black-Greiner Bio-One^TM CellStar^TM, Thermo Fisher Scientific, Hampton, VA, USA) filled with sterile water. After overnight incubation, roots were treated with 50 µM DCFH-DA (dichloro-dihydro-fluorescein diacetate; ACROS Organics, Geel, Belgium) for 10 min in the dark and rinsed with PBS, and next, wells were filled with CLP/mock solution. Fluorescence measurements (excitation wavelength 492 nm, emission wavelength 530 nm) were conducted by a Spark® (Tecan, Männedorf, Switzerland) microplate reader, using nine readings per well. Data, expressed as relative fluorescence increase, were obtained by subtracting the fluorescence measured at the first time point from the fluorescence measured at each time point (with the first time point being taken as 0). The fluorescence fold increase was defined for each repeat as the ratio between the fluorescence increase obtained at one time point for treatments and the mean fluorescence increase obtained at the same time point in mock-treated tissues.

[3] = test system: Arabidopsis thaliana Col-0 root protoplasts; assay: Calcium influx ([Ca2+]cyt) in root protoplasts, Fluo-4 AM probe; assay type: cell-based; settings: 10 µM, Fluo-4 normalized fluorescence (F/F0), within first 30 min; n = 6; Figure 4A,B
Description: Two-week-old Arabidopsis thaliana seedling roots (from 27 mg seeds) were collected and were cut into 1–2 mm segments and incubated in a protoplasting solution (20 mM MES pH 5.7, 0.4 M mannitol, 20 mM KCl, 10 mM CaCl2, 0.1% (w/v) BSA, 1.5% (w/v) cellulase R10 (Duchefa Biochemie, Haarlem, The Netherlands), 0.4% (w/v) macerozyme R10 (Duchefa Chimie)) for 3 h at room temperature and in the dark. After incubation, 1 mL of solution A (154 mM NaCl, 5 mM KCl, 125 mM CaCl2, 4 mM MES, pH = 5.7) was added inside. The suspension was agitated gently and filtered by a 70 µm pore filter to remove extra root debris. Filtered suspension was centrifuged at 850 g for 6 min at room temperature, and the pelleted protoplasts were rinsed three times with solution B (4 mM MES pH 5.7, 154 mM NaCl, 125 mM CaCl2, 5 mM KCl) before being resuspended in solution C (2 mM MES pH 5.7, 0.5 M mannitol, 20 mM KCl, 2 mM CaCl2) at a working concentration of 1–2 × 10^5 cells per mL. Calcium measurements were also performed on protoplasts with the Fluo-4 AM probe. Protoplasts isolated from roots of Arabidopsis thaliana Col-0 were incubated for 1 h with 5 µM of Fluo-4 AM (Thermo Fisher Scientific, Hampton, VA, USA) (from a 5 mM stock solution in DMSO). The suspension was then centrifuged at 750 g, and the supernatant was discarded to eliminate the remaining free fluo-4 AM. The protoplasts were resuspended in fresh solution C and were incubated for 1 h. Microplates (96 Flat Black-Greiner Bio-One^TM CellStar^TM, Fischer Scientific) were loaded with 150 µL of protoplast solution per well. After the addition of 50 µL of 4-times-concentrated treatment, the fluorescence was recorded every 15 s using a Spark® microplate reader (Tecan, Männedorf, Switzerland) with an excitation filter at 485 ± 20 nm and an emission filter at 535 ± 25 nm. The values obtained were then converted as normalized fluorescence increase (F/F0) by dividing the fluorescence measured at each time point (F) by the fluorescence measured at the first time point (F0).

Botrytis cinerea = assay: Induced systemic resistance (ISR) against B. cinerea leaf infection after root treatment; assay type: in vivo; settings: Arabidopsis thaliana Col-0, hydroponic, 10 µM at roots 24 h before leaf infection, scored 4 dpi vs mock (0.1% EtOH); n = 30 from two independent experiments; Figure 5
Description: Plants were grown for 4 weeks in hydroponic conditions in Araponics systems containing a nutrient solution (0.25% (v/v) FLORAMICRO®, 0.25% (v/v) FLORABLOOM®, 0.25% (v/v) FLORAGRO®; General Hydroponics®, in volume ratio 1:1:1, as recommended by the manufacturer), with a photoperiod of 12 h and a temperature of 22 °C. Plants were then transferred into 10 mL vials filled with fresh nutrient solution and treated at the root level with CLPs or ethanol (mock treatment) to obtain final concentrations of 10 µM and 0.1%, respectively. After incubation for 24 h, plants were inoculated with Botrytis cinerea (Helotiales: Sclerotiniaceae) as the conidia solution. Spores were collected from B. cinerea grown on PDA plates for 4 weeks using a solution composed of 1.75 g/L KH2PO4; 0.74 g/L MgSO4; 4 g/L glucose, and 0.02% (v/v) Tween 20. After spore collection, the concentration was adjusted to 5 × 10^5 spores per mL, and spores were incubated at 30 °C for eight hours. Inoculation was conducted by inoculating a drop of 3 µL of conidia solution onto seven leaves per plant and fifteen plants per treatment. The number of spreading lesions was evaluated 96 h post infection.

Substance | [ROS]intra burst in root protoplasts vs mock [1] | [ROS]intra production in roots vs mock [2] | [Ca2+]cyt increase in root protoplasts [3] | Leaf infection by B. cinerea (disease level) after root treatment (Botrytis cinerea)
lichenysin | significant boosting activity | induced a significantly higher production of [ROS]intra | fast increase in [Ca^2+]cyt | significantly reduced leaf infection
pumilacidin | not active | did not retain any significant triggering activity | not significant | no disease reduction
surfactin [Srf] | significant boosting activity | induced a significantly higher production of [ROS]intra | fast increase in [Ca^2+]cyt | significantly reduced leaf infection
